Reference: paper PMC8799717, “Pharmacological targeting PIKfyve and tubulin as an effective treatment strategy for double-hit lymphoma” (Cell Death Discovery, 2022)

Legend:
Experiment in all cases: biochemical
Parameters in all cases: KINOMEscan active-site-directed competition binding panel, 468 kinases, percent of DMSO control at 1 uM
Details in all cases: KINOMEscan binding, percent of DMSO control; read-out: Ctrl%
[1] = molecular target: TLK1 (Homo sapiens, UniProt Q9UKI8)
[2] = molecular target: T1, SGK (Homo sapiens, UniProt O00141)
T1 construct: gene SGK1

[3] = molecular target: CAMKK2 (Homo sapiens, UniProt Q96RR4)
[4] = molecular target: KIT(V559D,T670I) (Homo sapiens, UniProt P10721, T670I/V559D)
[5] = molecular target: T2, ABL1(E255K)-phosphorylated (Homo sapiens, UniProt P00519, E255K)
T2 construct: phosphorylated

[6] = molecular target: MARK1 (Homo sapiens, UniProt Q9P0L2)
[7] = molecular target: CAMK1D (Homo sapiens, UniProt Q8IU85)
[8] = molecular target: PHKG1 (Homo sapiens, UniProt Q16816)
[9] = molecular target: T3, ERK1 (Homo sapiens, UniProt P27361)
T3 construct: gene MAPK3

[10] = molecular target: T4, RIPK5 (Homo sapiens, UniProt Q6XUX3)
T4 construct: gene DSTYK

[11] = molecular target: RIPK2 (Homo sapiens, UniProt O43353)
[12] = molecular target: PDGFRA (Homo sapiens, UniProt P16234)
[13] = molecular target: FLT3(D835H) (Homo sapiens, UniProt P36888, D835H)
[14] = molecular target: LYN (Homo sapiens, UniProt P07948)
[15] = molecular target: EGFR(L861Q) (Homo sapiens, UniProt P00533, L861Q)
[16] = molecular target: DYRK1A (Homo sapiens, UniProt Q13627)
[17] = molecular target: PRKCD (Homo sapiens, UniProt Q05655)
[18] = molecular target: TAOK3 (Homo sapiens, UniProt Q9H2K8)
[19] = molecular target: MARK2 (Homo sapiens, UniProt Q7KZI7)
[20] = molecular target: CSNK1G3 (Homo sapiens, UniProt Q9Y6M4)
[21] = molecular target: T5, CTK (Homo sapiens, UniProt P42679)
T5 construct: gene MATK

[22] = molecular target: TSSK3 (Homo sapiens, UniProt Q96PN8)
[23] = molecular target: ERBB3 (Homo sapiens, UniProt P21860)
[24] = molecular target: T6, LZK (Homo sapiens, UniProt O43283)
T6 construct: gene MAP3K13
T6 sequence (O43283 whole entry): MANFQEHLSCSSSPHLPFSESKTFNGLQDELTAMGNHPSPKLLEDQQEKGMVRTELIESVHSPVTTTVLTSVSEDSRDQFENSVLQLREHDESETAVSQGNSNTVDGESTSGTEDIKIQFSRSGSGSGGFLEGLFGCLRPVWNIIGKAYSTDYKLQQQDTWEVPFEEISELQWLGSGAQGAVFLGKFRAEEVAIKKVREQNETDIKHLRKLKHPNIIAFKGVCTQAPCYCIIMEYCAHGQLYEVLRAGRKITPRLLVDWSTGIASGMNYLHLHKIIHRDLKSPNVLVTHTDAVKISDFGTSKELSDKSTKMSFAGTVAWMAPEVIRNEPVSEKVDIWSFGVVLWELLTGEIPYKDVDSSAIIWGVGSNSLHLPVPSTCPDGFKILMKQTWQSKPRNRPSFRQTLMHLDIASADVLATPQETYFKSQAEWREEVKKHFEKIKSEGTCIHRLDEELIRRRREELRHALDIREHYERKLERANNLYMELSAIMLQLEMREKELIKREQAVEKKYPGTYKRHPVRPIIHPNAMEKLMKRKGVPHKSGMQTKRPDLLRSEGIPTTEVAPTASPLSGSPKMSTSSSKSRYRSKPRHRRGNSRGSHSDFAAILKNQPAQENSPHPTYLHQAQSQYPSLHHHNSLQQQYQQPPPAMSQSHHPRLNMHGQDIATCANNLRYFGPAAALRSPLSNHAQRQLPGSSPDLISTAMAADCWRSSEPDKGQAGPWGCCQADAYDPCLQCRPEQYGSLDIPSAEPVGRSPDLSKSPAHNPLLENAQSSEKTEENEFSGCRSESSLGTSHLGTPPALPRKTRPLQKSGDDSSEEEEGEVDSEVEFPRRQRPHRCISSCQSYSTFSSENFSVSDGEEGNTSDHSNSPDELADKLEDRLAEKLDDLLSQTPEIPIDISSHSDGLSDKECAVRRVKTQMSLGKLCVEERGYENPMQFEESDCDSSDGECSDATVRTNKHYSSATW

TAOK3, sequence (Q9H2K8 whole entry): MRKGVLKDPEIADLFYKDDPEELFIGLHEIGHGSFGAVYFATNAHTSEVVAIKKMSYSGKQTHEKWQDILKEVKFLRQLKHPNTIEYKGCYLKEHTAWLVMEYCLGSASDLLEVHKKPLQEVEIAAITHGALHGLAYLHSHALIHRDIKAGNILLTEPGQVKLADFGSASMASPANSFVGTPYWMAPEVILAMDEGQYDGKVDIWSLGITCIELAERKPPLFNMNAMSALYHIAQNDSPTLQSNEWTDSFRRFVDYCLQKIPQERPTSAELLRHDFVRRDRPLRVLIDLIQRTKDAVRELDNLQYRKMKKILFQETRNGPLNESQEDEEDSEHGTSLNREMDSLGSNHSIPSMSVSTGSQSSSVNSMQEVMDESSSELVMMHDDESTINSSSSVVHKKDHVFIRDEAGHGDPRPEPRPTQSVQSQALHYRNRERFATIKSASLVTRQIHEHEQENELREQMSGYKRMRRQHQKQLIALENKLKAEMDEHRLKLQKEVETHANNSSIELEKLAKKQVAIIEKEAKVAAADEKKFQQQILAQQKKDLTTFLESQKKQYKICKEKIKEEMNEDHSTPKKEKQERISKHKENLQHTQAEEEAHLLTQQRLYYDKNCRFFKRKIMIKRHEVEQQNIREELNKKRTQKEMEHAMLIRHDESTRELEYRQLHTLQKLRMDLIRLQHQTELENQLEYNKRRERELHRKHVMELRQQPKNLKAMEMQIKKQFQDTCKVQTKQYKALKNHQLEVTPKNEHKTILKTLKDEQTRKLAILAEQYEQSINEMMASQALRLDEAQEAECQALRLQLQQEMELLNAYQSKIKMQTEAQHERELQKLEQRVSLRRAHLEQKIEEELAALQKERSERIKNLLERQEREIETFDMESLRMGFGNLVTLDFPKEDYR
LYN, sequence (P07948 whole entry): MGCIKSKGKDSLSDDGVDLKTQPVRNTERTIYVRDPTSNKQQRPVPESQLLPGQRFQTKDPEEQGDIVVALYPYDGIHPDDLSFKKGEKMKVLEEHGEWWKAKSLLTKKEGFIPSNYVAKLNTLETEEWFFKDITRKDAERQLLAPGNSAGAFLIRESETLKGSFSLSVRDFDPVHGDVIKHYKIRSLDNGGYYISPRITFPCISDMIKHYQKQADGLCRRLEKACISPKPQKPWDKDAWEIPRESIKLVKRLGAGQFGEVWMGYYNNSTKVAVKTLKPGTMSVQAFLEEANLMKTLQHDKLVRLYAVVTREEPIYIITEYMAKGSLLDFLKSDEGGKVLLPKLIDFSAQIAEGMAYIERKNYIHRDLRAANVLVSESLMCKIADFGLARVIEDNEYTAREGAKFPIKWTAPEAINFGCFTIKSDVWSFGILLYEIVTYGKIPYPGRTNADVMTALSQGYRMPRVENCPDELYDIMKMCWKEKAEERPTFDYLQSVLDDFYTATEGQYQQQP
EGFR(L861Q), sequence (P00533 whole entry L861Q): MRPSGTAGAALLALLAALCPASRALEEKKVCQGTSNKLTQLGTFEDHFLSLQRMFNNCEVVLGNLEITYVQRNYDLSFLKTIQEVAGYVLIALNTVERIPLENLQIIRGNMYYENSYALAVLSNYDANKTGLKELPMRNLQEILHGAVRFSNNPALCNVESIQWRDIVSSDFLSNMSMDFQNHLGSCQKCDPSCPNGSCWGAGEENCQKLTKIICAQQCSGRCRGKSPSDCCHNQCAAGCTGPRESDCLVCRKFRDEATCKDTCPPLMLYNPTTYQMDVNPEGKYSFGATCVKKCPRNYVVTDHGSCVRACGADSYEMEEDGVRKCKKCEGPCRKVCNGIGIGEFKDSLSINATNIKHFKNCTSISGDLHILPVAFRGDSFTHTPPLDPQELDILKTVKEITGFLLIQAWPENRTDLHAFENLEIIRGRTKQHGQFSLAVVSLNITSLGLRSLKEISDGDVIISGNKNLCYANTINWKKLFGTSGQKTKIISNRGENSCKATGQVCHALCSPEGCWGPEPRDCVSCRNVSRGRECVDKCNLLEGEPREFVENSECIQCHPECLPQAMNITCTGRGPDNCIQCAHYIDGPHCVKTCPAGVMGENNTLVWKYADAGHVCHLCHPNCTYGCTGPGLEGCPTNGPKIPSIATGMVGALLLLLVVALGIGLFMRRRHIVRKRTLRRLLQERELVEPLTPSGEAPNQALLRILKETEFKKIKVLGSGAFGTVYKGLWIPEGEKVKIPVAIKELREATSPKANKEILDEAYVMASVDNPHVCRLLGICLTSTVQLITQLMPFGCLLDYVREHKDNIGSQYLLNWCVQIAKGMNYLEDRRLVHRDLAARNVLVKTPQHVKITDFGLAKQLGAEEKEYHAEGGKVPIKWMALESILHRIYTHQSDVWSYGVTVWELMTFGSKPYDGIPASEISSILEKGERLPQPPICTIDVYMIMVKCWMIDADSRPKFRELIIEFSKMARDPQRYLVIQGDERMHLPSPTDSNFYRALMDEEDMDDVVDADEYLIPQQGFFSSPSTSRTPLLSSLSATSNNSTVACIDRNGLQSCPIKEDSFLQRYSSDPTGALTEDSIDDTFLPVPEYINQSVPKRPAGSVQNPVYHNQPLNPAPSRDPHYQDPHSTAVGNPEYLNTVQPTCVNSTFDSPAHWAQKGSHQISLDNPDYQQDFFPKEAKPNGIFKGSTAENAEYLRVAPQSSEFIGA
TLK1, sequence (Q9UKI8 whole entry): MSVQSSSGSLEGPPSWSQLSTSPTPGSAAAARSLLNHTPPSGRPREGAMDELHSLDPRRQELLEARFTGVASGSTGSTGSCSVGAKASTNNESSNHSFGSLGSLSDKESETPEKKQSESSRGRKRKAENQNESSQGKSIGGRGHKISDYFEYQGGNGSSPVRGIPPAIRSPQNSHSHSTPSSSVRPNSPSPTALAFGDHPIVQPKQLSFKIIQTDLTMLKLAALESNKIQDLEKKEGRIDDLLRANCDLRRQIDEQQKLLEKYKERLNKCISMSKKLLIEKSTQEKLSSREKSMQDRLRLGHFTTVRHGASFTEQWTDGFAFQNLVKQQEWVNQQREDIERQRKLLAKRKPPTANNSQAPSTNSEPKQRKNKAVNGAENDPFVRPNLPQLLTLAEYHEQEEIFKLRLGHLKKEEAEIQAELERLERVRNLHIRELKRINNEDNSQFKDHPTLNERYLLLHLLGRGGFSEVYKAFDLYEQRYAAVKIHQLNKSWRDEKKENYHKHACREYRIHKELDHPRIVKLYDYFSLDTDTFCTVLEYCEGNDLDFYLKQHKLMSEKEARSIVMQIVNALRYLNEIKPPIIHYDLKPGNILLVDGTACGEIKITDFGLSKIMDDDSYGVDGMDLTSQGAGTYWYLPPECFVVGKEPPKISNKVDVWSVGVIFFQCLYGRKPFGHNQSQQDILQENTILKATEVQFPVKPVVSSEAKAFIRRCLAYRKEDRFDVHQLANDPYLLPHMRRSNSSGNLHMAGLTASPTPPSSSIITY
CAMK1D, sequence (Q8IU85 whole entry): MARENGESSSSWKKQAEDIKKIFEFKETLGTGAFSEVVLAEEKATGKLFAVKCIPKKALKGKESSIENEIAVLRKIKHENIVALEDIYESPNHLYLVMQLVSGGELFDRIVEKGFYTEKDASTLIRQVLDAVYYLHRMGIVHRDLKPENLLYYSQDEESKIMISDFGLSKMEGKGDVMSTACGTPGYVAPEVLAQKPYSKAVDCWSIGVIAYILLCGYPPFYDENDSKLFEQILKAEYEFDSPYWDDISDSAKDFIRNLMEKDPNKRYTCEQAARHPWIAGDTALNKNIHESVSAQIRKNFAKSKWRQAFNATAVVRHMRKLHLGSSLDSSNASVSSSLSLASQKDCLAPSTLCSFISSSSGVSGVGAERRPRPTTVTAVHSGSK
TSSK3, sequence (Q96PN8 whole entry): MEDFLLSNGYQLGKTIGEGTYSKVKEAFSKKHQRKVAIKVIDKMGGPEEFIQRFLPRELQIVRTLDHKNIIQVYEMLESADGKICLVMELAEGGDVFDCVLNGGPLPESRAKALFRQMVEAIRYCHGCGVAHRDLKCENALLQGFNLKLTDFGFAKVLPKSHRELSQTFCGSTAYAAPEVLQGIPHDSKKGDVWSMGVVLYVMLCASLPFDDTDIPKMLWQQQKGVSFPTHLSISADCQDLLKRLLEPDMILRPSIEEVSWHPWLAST

With `Cc1ccc(NC(=O)c2cccc(C(F)(F)F)c2)cc1Nc1cc(-c2cccnc2)nc2[nH]ccc12` [HZX-02-059] the remaining binding at 1 µM [1] was 95%, the remaining binding at 1 µM [2] was 100% and the remaining binding at 1 µM [3] was 93%. For the same molecule, the remaining binding at 1 µM [4] was 80%, the remaining binding at 1 µM [5] was 77% and the remaining binding at 1 µM [6] was 94%. For the same molecule, the remaining binding at 1 µM [7] was 100%, the remaining binding at 1 µM [8] was 97% and the remaining binding at 1 µM [9] was 99%. For the same molecule, the remaining binding at 1 µM [10] was 100%, the remaining binding at 1 µM [11] was 100% and the remaining binding at 1 µM [12] was 66%. The remaining binding at 1 µM [13] was 92%, the remaining binding at 1 µM [14] was 17% and the remaining binding at 1 µM [15] was 76%. For the same molecule, the remaining binding at 1 µM [16] was 85%, the remaining binding at 1 µM [17] was 96% and the remaining binding at 1 µM [18] was 100%. For the same molecule, the remaining binding at 1 µM [19] was 78%, the remaining binding at 1 µM [20] was 100% and the remaining binding at 1 µM [21] was 56%. The remaining binding at 1 µM [22] was 100%, the remaining binding at 1 µM [23] was 100% and the remaining binding at 1 µM [24] was 100%.
